Test system: 616215-338-R-J1-PDC tumor spheroids, viability
Assay: Anticancer human tumor 616215-338-R-J1-PDC patient-derived colon adenocarcinoma cell line growth inhibition [GQUAD]
Settings: spheroids with HUVEC and MSC; for IC50: curve of first compound; for viability, T/C: stronger effect = lower value
Procedure, shortened: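 Tumor cells were grown as complex spheroids with HUVEC endothelial cells and mesenchymal stem cells as stroma. G-quadruplex stabilizers were combined with targeted agents over half-log dilutions from near the clinical Cmax, or from 10 microM.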

[1] = second compound 0.0316 µM, first compound 0.0316 µM
[2] = second compound 0.0316 µM, first compound 0.1 µM
[3] = second compound 0.0316 µM, first compound 0.316 µM
[4] = second compound 0.0316 µM, first compound 1 µM
[5] = second compound 0.0316 µM, first compound 3.16 µM
[6] = second compound 0.0316 µM, first compound 10 µM
[7] = second compound 0.1 µM, first compound 0.0316 µM
[8] = second compound 0.1 µM, first compound 0.1 µM
[9] = second compound 0.1 µM, first compound 0.316 µM
[10] = second compound 0.1 µM, first compound 1 µM
[11] = second compound 0.1 µM, first compound 3.16 µM
[12] = second compound 0.1 µM, first compound 10 µM
[13] = second compound 0.316 µM, first compound 0.0316 µM
[14] = second compound 0.316 µM, first compound 0.1 µM
[15] = second compound 0.316 µM, first compound 0.316 µM
[16] = second compound 0.316 µM, first compound 1 µM
[17] = second compound 0.316 µM, first compound 3.16 µM
[18] = second compound 0.316 µM, first compound 10 µM
[19] = second compound 1 µM, first compound 0.0316 µM
[20] = second compound 1 µM, first compound 0.1 µM
[21] = second compound 1 µM, first compound 0.316 µM
[22] = second compound 1 µM, first compound 1 µM
[23] = second compound 1 µM, first compound 3.16 µM
[24] = second compound 1 µM, first compound 10 µM
[25] = second compound 3.16 µM, first compound 0.0316 µM
[26] = second compound 3.16 µM, first compound 0.1 µM
[27] = second compound 3.16 µM, first compound 0.316 µM
[28] = second compound 3.16 µM, first compound 1 µM
[29] = second compound 3.16 µM, first compound 3.16 µM
[30] = second compound 3.16 µM, first compound 10 µM
[31] = second compound 10 µM, first compound 0.0316 µM
[32] = second compound 10 µM, first compound 0.1 µM
[33] = second compound 10 µM, first compound 0.316 µM
[34] = second compound 10 µM, first compound 1 µM
[35] = second compound 10 µM, first compound 3.16 µM
[36] = second compound 10 µM, first compound 10 µM
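Further: spheroids exposed to agents for 7 days before readout.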
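Wherever viability, T/C is given: percent viability relative to DMSO vehicle control wells taken as 100%.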

Structure (SMILES): COc1cc(C2c3cc4c(cc3C(OC3OC5COC(C)OC5C(O)C3O)C3COC(=O)C23)OCO4)cc(OC)c1O (centres undefined) + CN(C)c1ccc(Nc2c3ccc(NC(=O)CCN4CCCC4)cc3nc3cc(NC(=O)CCN4CCCC4)ccc23)cc1
- IC50 (second compound 0.0316 µM): 967 nM
- IC50 (second compound 0.1 µM): 655 nM
- IC50 (second compound 0.316 µM): 693 nM
- IC50 (second compound 1 µM): 762 nM
- IC50 (second compound 3.16 µM): 644 nM
- IC50 (second compound 10 µM): 491 nM
- viability, T/C [1]: 99.3%
- viability, T/C [2]: 103%
- viability, T/C [3]: 67.8%
- viability, T/C [4]: 51.9%
- viability, T/C [5]: 31.9%
- viability, T/C [6]: 20.7%
- viability, T/C [7]: 94.7%
- viability, T/C [8]: 107%
- viability, T/C [9]: 71.6%
- viability, T/C [10]: 37.5%
- viability, T/C [11]: 31%
- viability, T/C [12]: 18.7%
- viability, T/C [13]: 100%
- viability, T/C [14]: 95.6%
- viability, T/C [15]: 63.4%
- viability, T/C [16]: 41%
- viability, T/C [17]: 33.1%
- viability, T/C [18]: 16.6%
- viability, T/C [19]: 100%
- viability, T/C [20]: 91.6%
- viability, T/C [21]: 58.5%
- viability, T/C [22]: 44.6%
- viability, T/C [23]: 34.3%
- viability, T/C [24]: 14.2%
- viability, T/C [25]: 96.4%
- viability, T/C [26]: 85%
- viability, T/C [27]: 55.9%
- viability, T/C [28]: 43.6%
- viability, T/C [29]: 31.6%
- viability, T/C [30]: 15.9%
- viability, T/C [31]: 97.2%
- viability, T/C [32]: 83.2%
- viability, T/C [33]: 52.6%
- viability, T/C [34]: 40%
- viability, T/C [35]: 25.9%
- viability, T/C [36]: 15%

Structure (SMILES): CC(=O)O[C@H]1C(=O)[C@@]2(C)[C@H]([C@H](OC(=O)c3ccccc3)[C@]3(O)C[C@H](OC(=O)[C@H](O)[C@@H](NC(=O)c4ccccc4)c4ccccc4)C(C)=C1C3(C)C)[C@]1(OC(C)=O)CO[C@@H]1C[C@@H]2O + CN(C)c1ccc(Nc2c3ccc(NC(=O)CCN4CCCC4)cc3nc3cc(NC(=O)CCN4CCCC4)ccc23)cc1
- IC50 (second compound 0.0316 µM): < 31.6 nM
- IC50 (second compound 0.1 µM): < 31.6 nM
- IC50 (second compound 0.316 µM): < 31.6 nM
- IC50 (second compound 1 µM): < 31.6 nM
- IC50 (second compound 3.16 µM): < 31.6 nM
- IC50 (second compound 10 µM): < 31.6 nM
- viability, T/C [1]: 28.9%
- viability, T/C [2]: 20.4%
- viability, T/C [3]: 18.1%
- viability, T/C [4]: 14.6%
- viability, T/C [5]: 12.1%
- viability, T/C [6]: 13.2%
- viability, T/C [7]: 24.7%
- viability, T/C [8]: 19.5%
- viability, T/C [9]: 16.4%
- viability, T/C [10]: 14%
- viability, T/C [11]: 12.8%
- viability, T/C [12]: 11.4%
- viability, T/C [13]: 41.4%
- viability, T/C [14]: 22.1%
- viability, T/C [15]: 14.8%
- viability, T/C [16]: 10.8%
- viability, T/C [17]: 12.3%
- viability, T/C [18]: 14.2%
- viability, T/C [19]: 34%
- viability, T/C [20]: 15%
- viability, T/C [21]: 16%
- viability, T/C [22]: 8.58%
- viability, T/C [23]: 16.5%
- viability, T/C [24]: 12.9%
- viability, T/C [25]: 28.6%
- viability, T/C [26]: 14.3%
- viability, T/C [27]: 15.3%
- viability, T/C [28]: 11.1%
- viability, T/C [29]: 11.2%
- viability, T/C [30]: 11.8%
- viability, T/C [31]: 26.2%
- viability, T/C [32]: 16.4%
- viability, T/C [33]: 17.4%
- viability, T/C [34]: 12.2%
- viability, T/C [35]: 9.14%
- viability, T/C [36]: 11.9%
